Experimental findings from BindingDB's records for doi:10.1016/s0960-894x(00)00604-1 (Merck Research Laboratories, 2001) are described below.

SMILES strings stand for the structures.

The target of this assay is Histone deacetylase (Eimeria tenella). The experiment in a line: Inhibitory activity against histone deacetylase (HDAC) from partially purified extracts of Eimeria tenella protozoal cells.

The term IC50 denotes the midpoint of a concentration-inhibition curve. Read a high IC50 as weaker potency in that assay. On to `CC[C@H](C)[C@@H]1NC(=O)[C@H](Cc2cn(OC)c3ccccc23)NC(=O)[C@H](CCCCCC(=O)OC)NC(=O)[C@H]2CCCCN2CC1=O`, for which it took 0.8 nM to reach half-maximal inhibition (IC50). The same measure for `CC[C@H](C)[C@@H]1NC(=O)[C@H](Cc2cn(OC)c3ccccc23)NC(=O)[C@H](CCCCCC(=O)O)NC(=O)[C@H]2CCCCN2CC1=O`: 30 nM; for `CCCCCCCC[C@@H]1NC(=O)[C@H]2CCCCN2CC(=O)[C@H]([C@@H](C)CC)NC(=O)[C@H](Cc2cn(OC)c3ccccc23)NC1=O`: 300 nM; for `CC[C@H](C)[C@@H]1NC(=O)[C@H](Cc2cn(OC)c3ccccc23)NC(=O)[C@H](CCCCCP(=O)(OC)OC)NC(=O)[C@H]2CCCCN2CC1=O`: 850 nM. The value for `CC[C@H](C)[C@@H]1NC(=O)[C@H](Cc2cn(OC)c3ccccc23)NC(=O)[C@H](CCCCCC(=O)C2CO2)NC(=O)[C@H]2CCCCN2CC1=O` (some centres not stated) was 1 nM; that for `CC[C@H](C)[C@@H]1NC(=O)[C@H](Cc2cn(OC)c3ccccc23)NC(=O)[C@H](CCCCCC(=O)C(C)O)NC(=O)[C@H]2CCCCN2CC1=O` (some centres not stated) was 4 nM; that for `CCC(=O)CCCCC[C@@H]1NC(=O)[C@H]2CCCCN2CC(=O)[C@H]([C@@H](C)CC)NC(=S)[C@H](Cc2cn(OC)c3ccccc23)NC1=O` was 210 nM.
